Experimental data reported in patent US9879059B2, “Tailoring multivalent interactions of biopolymers with a polyproline scaffold” (Agency for Science, Technology and Research, priority 2013, dated 2018).

Columns and labels:
[1] = biological target: nerve growth factor (NGF) (Homo sapiens, UniProt P01138); assay: ELISA of NGF binding to immobilized biotinylated glycopeptides
Procedure: The new plate was rinsed three times with PBS containing 0.05% Tween 20 and one time with PBS before the experiment. 100 μL of biotinylated glycopeptide solutions (0.5 μM) were added to required wells in the Pierce Streptavidin Coated High Binding Capacity plates (#15501), and incubated overnight at room temperature. After immobilization of glycopeptides, the plates were rinsed three times with PBS containing 0.05% Tween 20 and one time with PBS. The surface was then blocked with 125 μL of 3% BSA in PBS for 1 hr, followed by rinsing three times with PBS containing 0.05% Tween 20 and one time with PBS. 100 μL of varying concentrations (0 nM, 10 nM, 20 nM, 30 nM, 40 nM, 50 nM and 60 nM) of NGF in PBS containing 1% BSA was added to the wells and incubated for 2 hrs at 37° C. […]
The wells were then incubated with anti-NGF labeled with HRP in PBS containing 1% BSA. Absorbance signal was then developed with 100 μL of TMB Substrate from Thermo Scientific Pierce (#0034021) for 20 to 30 min before quenching with 100 μL of 2M H2SO4. Absorbance at 450 nm was then measured.
To evaluate the ability of the glycopeptides to interact with protein receptors, the binding affinity of each agent with nerve growth factor (NGF), which is known to bind CS-E sulfation motif selectively,^[9] was examined by ELISA. […] The amount of glycopeptide-bound NGF was measured by HRP-conjugated polyclonal NGF antibody.

[2] = biological target: NGF (Homo sapiens, UniProt P01138); settings: for ka2 / kd1 / kd2 / ka1: two-state kinetic model, 25° C., NGF 11-185 nM; for ka1: standard errors in parentheses
Sequence of NGF (P01138 122-241, species assumed): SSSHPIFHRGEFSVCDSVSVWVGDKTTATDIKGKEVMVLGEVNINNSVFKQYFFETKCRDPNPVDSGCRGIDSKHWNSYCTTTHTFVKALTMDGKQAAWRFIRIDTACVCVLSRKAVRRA
Procedure: Affinity measurements were performed using a Biacore T100 system (GE Heathcare). The CM5 sensor chip was used for all measurements. At first, the instrument was primed with HBS-EP+ (GE Heathcare) buffer. Then, 700RU of streptavidin was immobilized on all flow cells. A 1:1 mixture of 0.4 M EDC and 0.1 M NHS was used to activate the flow cells, and 0.008 mg/mL streptavidin solution reconstituted in Acetate 5.0 buffer (GE Healthcare) was injected. Blocking of the remaining activated groups was done with a 1 M solution of ethanolamine (pH 8.5). Flow cell 1 (or 3) was used as a reference to subtract nonspecific binding, drift, and the bulk refractive index, while flow cell 2 (or 4) was further immobilized with glycol-peptide samples of varying structures. Biotinylated glycopeptides (20 nM) were dissolved in HBS-EP+ buffer and were injected to flow cell 2 (or 4) at 30 μL/min until the baseline response increased by 104 or 127 RU. The instrument was then primed using running buffer (HBS-EP+). NGF was dissolved in HBS-EP+ buffer to produce a 185 nM stock solution, which was serially diluted to produce a concentration series down to 11 nM. […] Flow cells were regenerated by 2.5 M MgCl2 at 30 μL/min for 30 seconds after injection of each protein solutions.
Surface plasmon resonance (SPR) technology was further employed to facilitate quantitative, real-time kinetic analysis of glycopeptide-NGF interaction. Streptavidin was coated on a carboxydextran CM5 sensor chip, using EDC/NHS coupling chemistry, at a relatively low density (≈700 RU) to prevent nonspecific interactions with NGF. Biotinylated glycopeptides were then immobilized on streptavidin-coated surface at normalized levels by molecular weights,^[12] […] Kinetics were monitored at 25° C. by injecting various concentrations of NGF (11-185 nM) over the surface for 240 s at 50 μL·min^−1 and recording the dissociation for 800 s before the surface was regenerated with 2.5 M solution of MgCl2. […] Further kinetic analysis was conducted using a two-state binding model for comprehensive understanding of this binding event.

[3] = tested on: PC12 cells; settings: for effect on NGF-mediated neurite outgrowth: NGF 4 ng/ml, glycopeptide 10 μM, 72 hr, compared to NGF-only control
Procedure: Rat pheochromocytoma (PC12) cells were maintained in T75 tissue culture flask in complete RPMI 1640 growth medium containing 10% heat-inactivated horse serum (HI-HS), 5% fetal bovine serum (FBS) and 1% penicillin/streptomycin. Stock cultures from liquid nitrogen were grown at 37° C. with 5% CO2 in a humidified chamber for 72 hr before experiments.
13 mm glass coverslips were submerged in 65% nitric acid for at least three days. The coverslips were washed with distilled water, 70% ethanol and 100% ethanol 3× each for 30 minutes with gentle rocking. The coverslips were dried in the cell culture hood overnight with UV sterilization. For coating, 60 μl of laminin solution (25 μg/ml in sterile PBS) was added to each coverslip, followed by 2 hr incubation at 37° C. The coverslips were rinsed 3× with PBS and dried in the hood before use.
PC12 cells were seeded on laminin-coated coverslips at a density of 100 cells/mm^2 in RPMI 1640 differentiation medium containing 1% HI-HS. Cells were allowed to attach to the surface for 1 hr at 37° C. The coverslips were transferred to 24-well plates and the cells were incubated with fresh differentiation medium for 1 hr. Glycopeptides were incubated with NGF in differentiation medium for 1 hr at room temperature before adding to the cells together. At the end of culture period, the cells were fixed with 4% formaldehyde solution for 15 minutes at room temperature and rinsed 2× with PBS. All experiments were repeated three times and done in duplicate each time. For each treatment, 400-500 randomly selected single cells were counted. The percentage of neurite-bearing cells was determined by counting the number of cells with neurite length at least one cell body long.

[4] = tested on: TrkA; settings: 10 μM glycopeptide 1 hr, NGF 4 ng/ml 5 minutes, ratio phospho-TrkA to total TrkA
Procedure: PC12 cells were seeded on laminin-coated coverslips at a density of 300 cells/mm^2 and one coverslip was used for each treatment (˜40,000 cells in total). Cells were starved in differentiation medium for 12-18 hr before use. For glycopeptide treatment, cells were incubated with fresh differentiation medium containing 10 μM glycopeptide for 1 hr at 37° C. To induce TrkA phosphorylation, cells were treated with NGF at a final concentration of 4 ng/ml for 5 minutes at 37° C. Cells were washed with ice cold PBS and lysed using RIPA lysis buffer containing protease and phosphatase inhibitors. The protein samples were separated on 4-12% SDS-PAGE gel and transferred to nitrocellulose membrane. Membranes were blocked for 1 h at room temperature and probed with anti-TrkA Ab (1:1500) and anti-pTrkA Ab (1:1500) overnight at 4° C., followed by 2 hr incubation with horseradish peroxidase-conjugated secondary antibodies. Enhanced chemiluminescence system was used for detection. The bands were quantified using the ImageJ program and the ratio of phosphor-TrkA to total TrkA was calculated and expressed as arbitrary units (a.u.).

Sequence of nerve growth factor (NGF) (P01138 122-241, species assumed): as above

Compound | increase in NGF binding affinity in comparison to 1 (ELISA) ([1]; relative to glycopeptide 1) [fold] | binds to NGF more strongly than agent 1 (comparison of KD values) ([2]; KD of 5 versus KD of 1) | SPR overall response to NGF ([2]; compared with glycopeptide 1, result in words) | ka2 [2] | kd1 [2] | kd2 [2] | ka1 [2] | percentage of neurite-bearing cells ([3]; 4 ng/ml NGF and 10 μM glycopeptide 3 days, 2 ng/ml NGF and 6 μM glycopeptide 5 days, result in words) | effect on NGF-mediated neurite outgrowth [3] | PC12 cell morphology with glycopeptide only ([3]; in the absence of NGF) | increase of NGF-induced TrkA phosphorylation compared to control [4] [%] | binding to NGF (ELISA) ([1]; glycopeptide immobilized on streptavidin plate, NGF 0-60 nM, result in words)
COC(=O)[C@@H]1C[C@@H](n2cc(CO[C@@H]3O[C@H](COS(=O)(=O)O)[C@H](OS(=O)(=O)O)[C@H](O[C@@H]4O[C@H](C(=O)O)[C@@H](O)[C@H](O)[C@H]4O)[C@H]3NC(C)=O)nn2)CN1C(=O)[C@@H]1CCCN1C(=O)[C@@H]1CCCN1C(=O)[C@@H]1C[C@@H](n2cc(CO[C@@H]3O[C@H](COS(=O)(=O)O)[C@H](OS(=O)(=O)O)[C@H](O[C@@H]4O[C@H](C(=O)O)[C@@H](O)[C@H](O)[C@H]4O)[C@H]3NC(C)=O)nn2)CN1C(=O)[C@@H]1CCCN1C(=O)[C@@H]1CCCN1C(=O)[C@@H]1C[C@@H](n2cc(CO[C@@H]3O[C@H](COS(=O)(=O)O)[C@H](OS(=O)(=O)O)[C@H](O[C@@H]4O[C@H](C(=O)O)[C@@H](O)[C@H](O)[C@H]4O)[C@H]3NC(C)=O)nn2)CN1C(=O)[C@@H]1CCCN1C(=O)[C@@H]1CCCN1C(=O)[C@@H]1C[C@@H](n2cc(CO[C@@H]3O[C@H](COS(=O)(=O)O)[C@H](OS(=O)(=O)O)[C@H](O[C@@H]4O[C@H](C(=O)O)[C@@H](O)[C@H](O)[C@H]4O)[C@H]3NC(C)=O)nn2)CN1C(=O)[C@@H]1CCCN1C(=O)[C@@H]1CCCN1C(=O)[C@@H]1C[C@@H](n2cc(CO[C@@H]3O[C@H](COS(=O)(=O)O)[C@H](OS(=O)(=O)O)[C@H](O[C@@H]4O[C@H](C(=O)O)[C@@H](O)[C@H](O)[C@H]4O)[C@H]3NC(C)=O)nn2)CN1C(=O)[C@@H]1CCCN1C(=O)[C@@H]1CCCN1C(=O)[C@@H]1C[C@@H](n2cc(CO[C@@H]3O[C@H](COS(=O)(=O)O)[C@H](OS(=O)(=O)O)[C@H](O[C@@H]4O[C@H](C(=O)O)[C@@H](O)[C@H](O)[C@H]4O)[C@H]3NC(C)=O)nn2)CN1C(=O)[C@@H]1CCCN1C(=O)[C@@H]1CCCN1C(=O)[C@@H]1C[C@@H](n2cc(CO[C@@H]3O[C@H](COS(=O)(=O)O)[C@H](OS(=O)(=O)O)[C@H](O[C@@H]4O[C@H](C(=O)O)[C@@H](O)[C@H](O)[C@H]4O)[C@H]3NC(C)=O)nn2)CN1C(=O)[C@@H]1CCCN1C(=O)[C@@H]1CCCN1C(=O)[C@@H]1C[C@@H](n2cc(CO[C@@H]3O[C@H](COS(=O)(=O)O)[C@H](OS(=O)(=O)O)[C@H](O[C@@H]4O[C@H](C(=O)O)[C@@H](O)[C@H](O)[C@H]4O)[C@H]3NC(C)=O)nn2)CN1C(=O)[C@@H]1CCCN1C(=O)[C@@H]1CCCN1C(=O)[C@@H]1C[C@@H](n2cc(CO[C@@H]3O[C@H](COS(=O)(=O)O)[C@H](OS(=O)(=O)O)[C@H](O[C@@H]4O[C@H](C(=O)O)[C@@H](O)[C@H](O)[C@H]4O)[C@H]3NC(C)=O)nn2)CN1C(=O)[C@@H]1CCCN1C(=O)[C@@H]1CCCN1C(=O)[C@@H]1C[C@@H](n2cc(CO[C@@H]3O[C@H](COS(=O)(=O)O)[C@H](OS(=O)(=O)O)[C@H](O[C@@H]4O[C@H](C(=O)O)[C@@H](O)[C@H](O)[C@H]4O)[C@H]3NC(C)=O)nn2)CN1C(=O)[C@@H]1CCCN1C(=O)[C@@H]1CCCN1C(=O)[C@@H]1C[C@@H](n2cc(CO[C@@H]3O[C@H](COS(=O)(=O)O)[C@H](OS(=O)(=O)O)[C@H](O[C@@H]4O[C@H](C(=O)O)[C@@H](O)[C@H](O)[C@H]4O)[C@H]3NC(C)=O)nn2)CN1C(=O)[C@@H]1CCCN1C(=O)[C@@H]1CCCN1C(=O)[C@@H]1C[C@@H](n2cc(CO[C@@H]3O[C@H](COS(=O)(=O)O)[C@H](OS(=O)(=O)O)[C@H](O[C@@H]4O[C@H](C(=O)O)[C@@H](O)[C@H](O)[C@H]4O)[C@H]3NC(C)=O)nn2)CN1C(=O)[C@@H]1CCCN1C(=O)[C@@H]1CCCN1C(=O)CCOCCOCCOCCOCCOCCOCCOCCOCCOCCOCCOCCOCCNC(=O)CCCC[C@@H]1SC[C@@H]2NC(=O)N[C@@H]21 [Glycopeptide 5] | 4.6 | approximately 18 fold | higher overall responses | 1.97 (±0.02) × 10^−3 M^−1s^−1 | 2.74 (±0.04) × 10^−2 s^−1 | 6.00 (±0.17) × 10^−4 s^−1 | 4.65 (±0.16) × 10^4 M^−1s^−1 | greatly increased | significantly promoted neurite outgrowth | remained round-shaped and undifferentiated | ~40 | –
COC(=O)[C@@H]1C[C@@H](n2cc(CO[C@@H]3O[C@H](COS(=O)(=O)O)[C@H](OS(=O)(=O)O)[C@H](O[C@@H]4O[C@H](C(=O)O)[C@@H](O)[C@H](O)[C@H]4O)[C@H]3NC(C)=O)nn2)CN1C(=O)[C@@H]1C[C@@H](n2cc(CO[C@@H]3O[C@H](COS(=O)(=O)O)[C@H](OS(=O)(=O)O)[C@H](O[C@@H]4O[C@H](C(=O)O)[C@@H](O)[C@H](O)[C@H]4O)[C@H]3NC(C)=O)nn2)CN1C(=O)[C@@H]1C[C@@H](n2cc(CO[C@@H]3O[C@H](COS(=O)(=O)O)[C@H](OS(=O)(=O)O)[C@H](O[C@@H]4O[C@H](C(=O)O)[C@@H](O)[C@H](O)[C@H]4O)[C@H]3NC(C)=O)nn2)CN1C(=O)[C@@H]1C[C@@H](n2cc(CO[C@@H]3O[C@H](COS(=O)(=O)O)[C@H](OS(=O)(=O)O)[C@H](O[C@@H]4O[C@H](C(=O)O)[C@@H](O)[C@H](O)[C@H]4O)[C@H]3NC(C)=O)nn2)CN1C(=O)[C@@H]1C[C@@H](n2cc(CO[C@@H]3O[C@H](COS(=O)(=O)O)[C@H](OS(=O)(=O)O)[C@H](O[C@@H]4O[C@H](C(=O)O)[C@@H](O)[C@H](O)[C@H]4O)[C@H]3NC(C)=O)nn2)CN1C(=O)[C@@H]1C[C@@H](n2cc(CO[C@@H]3O[C@H](COS(=O)(=O)O)[C@H](OS(=O)(=O)O)[C@H](O[C@@H]4O[C@H](C(=O)O)[C@@H](O)[C@H](O)[C@H]4O)[C@H]3NC(C)=O)nn2)CN1C(=O)[C@@H]1C[C@@H](n2cc(CO[C@@H]3O[C@H](COS(=O)(=O)O)[C@H](OS(=O)(=O)O)[C@H](O[C@@H]4O[C@H](C(=O)O)[C@@H](O)[C@H](O)[C@H]4O)[C@H]3NC(C)=O)nn2)CN1C(=O)[C@@H]1C[C@@H](n2cc(CO[C@@H]3O[C@H](COS(=O)(=O)O)[C@H](OS(=O)(=O)O)[C@H](O[C@@H]4O[C@H](C(=O)O)[C@@H](O)[C@H](O)[C@H]4O)[C@H]3NC(C)=O)nn2)CN1C(=O)[C@@H]1C[C@@H](n2cc(CO[C@@H]3O[C@H](COS(=O)(=O)O)[C@H](OS(=O)(=O)O)[C@H](O[C@@H]4O[C@H](C(=O)O)[C@@H](O)[C@H](O)[C@H]4O)[C@H]3NC(C)=O)nn2)CN1C(=O)[C@@H]1C[C@@H](n2cc(CO[C@@H]3O[C@H](COS(=O)(=O)O)[C@H](OS(=O)(=O)O)[C@H](O[C@@H]4O[C@H](C(=O)O)[C@@H](O)[C@H](O)[C@H]4O)[C@H]3NC(C)=O)nn2)CN1C(=O)[C@@H]1C[C@@H](n2cc(CO[C@@H]3O[C@H](COS(=O)(=O)O)[C@H](OS(=O)(=O)O)[C@H](O[C@@H]4O[C@H](C(=O)O)[C@@H](O)[C@H](O)[C@H]4O)[C@H]3NC(C)=O)nn2)CN1C(=O)[C@@H]1C[C@@H](n2cc(CO[C@@H]3O[C@H](COS(=O)(=O)O)[C@H](OS(=O)(=O)O)[C@H](O[C@@H]4O[C@H](C(=O)O)[C@@H](O)[C@H](O)[C@H]4O)[C@H]3NC(C)=O)nn2)CN1C(=O)CCOCCOCCOCCOCCOCCOCCOCCOCCOCCOCCOCCOCCNC(=O)CCCC[C@@H]1SC[C@@H]2NC(=O)N[C@@H]21 [Glycopeptide 1] | – | – | – | 3.62 (±0.04) × 10^−3 M^−1s^−1 | 3.22 (±0.07) × 10^−2 s^−1 | 6.43 (±0.13) × 10^−4 s^−1 | 1.95 (±0.39) × 10^3 M^−1s^−1 | – | no effect | – | – | moderate binding affinity
